Values joined by “and” are separate entries in the source; they are usually repeats but may differ in a detail not shown here. Identical values can stand only once. Inconclusive results and toxic doses are left out.
Tested on: P388 leukemia ip, CD2F1 mice, survival T/C
Test: NCI In Vivo Anticancer Drug Screen. Data for tumor model P388 Leukemia (intraperitoneal) in CD2F1 (CDF1) mice
Settings: endpoint: median survival time, higher = longer survival
Outline: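 Mice carrying the transplanted tumor received test compound or vehicle. Survival was recorded in each group, and the value is the treated-group measurement divided by that of the vehicle-treated control group.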

[1] = dose: 50.0 mg/kg/injection, schedule: Q01DX009 (ip), vehicle: saline
[2] = dose: 100.0 mg/kg/injection, schedule: Q01DX001 (ip), vehicle: Klucel (hydroxypropylcellulose) (HPC)
[3] = dose: 200.0 mg/kg/injection, schedule: Q01DX001 (ip), vehicle: Klucel (hydroxypropylcellulose) (HPC)
[4] = dose: 400.0 mg/kg/injection, schedule: Q01DX001 (ip), vehicle: Klucel (hydroxypropylcellulose) (HPC)
[5] = dose: 50.0 mg/kg/injection, schedule: Q01DX009 (ip), vehicle: Klucel (hydroxypropylcellulose) (HPC)
[6] = dose: 100.0 mg/kg/injection, schedule: Q01DX009 (ip), vehicle: Klucel (hydroxypropylcellulose) (HPC)
[7] = dose: 200.0 mg/kg/injection, schedule: Q01DX009 (ip), vehicle: Klucel (hydroxypropylcellulose) (HPC)
[8] = dose: 60.0 mg/kg/injection, schedule: Q01DX005 (ip), vehicle: saline with Tween-80
[9] = dose: 120.0 mg/kg/injection, schedule: Q01DX005 (ip), vehicle: saline with Tween-80
[10] = dose: 100.0 mg/kg/injection, schedule: Q04DX003 (ip), vehicle: Klucel (hydroxypropylcellulose) (HPC)
[11] = dose: 200.0 mg/kg/injection, schedule: Q04DX003 (ip), vehicle: Klucel (hydroxypropylcellulose) (HPC)
[12] = dose: 400.0 mg/kg/injection, schedule: Q04DX003 (ip), vehicle: Klucel (hydroxypropylcellulose) (HPC)
[13] = dose: 100.0 mg/kg/injection, schedule: Q01DX009 (ip), vehicle: saline
[14] = dose: 200.0 mg/kg/injection, schedule: Q01DX009 (ip), vehicle: saline
[15] = dose: 240.0 mg/kg/injection, schedule: Q01DX005 (ip), vehicle: saline with Tween-80

Q: What does the source list for COC(=O)NC1CC=CCC1I (stereo not drawn)?
A: T/C (dose: 12.5 mg/kg/injection, schedule: Q01DX009 (ip), vehicle: saline): 96 % of control; T/C (dose: 25.0 mg/kg/injection, schedule: Q01DX009 (ip), vehicle: saline): 105 % of control; T/C [1]: 106 % of control

Q: For c1ccc2c3c(ccc2c1)Oc1ccc2ccccc2c1C3, which T/C [2] is on record?
A: 102 % of control

Q: And the T/C [3]?
A: 97 % of control

Q: What about the T/C [4] of the same compound?
A: 100 % of control

Q: Which T/C (dose: 60.0 mg/kg/injection, schedule: Q01DX005 (ip), vehicle: Klucel (hydroxypropylcellulose) (HPC)) does the source give for S=C(N/N=C\c1c[nH]c2ccc(Br)cc12)NC12CC3CC(CC(C3)C1)C2 here?
A: 98 % of control

Q: And the T/C (dose: 120.0 mg/kg/injection, schedule: Q01DX005 (ip), vehicle: Klucel (hydroxypropylcellulose) (HPC))?
A: 93 % of control

Q: And the T/C (dose: 240.0 mg/kg/injection, schedule: Q01DX005 (ip), vehicle: Klucel (hydroxypropylcellulose) (HPC))?
A: 98 % of control

Q: Which T/C (dose: 12.5 mg/kg/injection, schedule: Q01DX009 (ip), vehicle: saline with Tween-80) does the source give for NC(=Nc1ccccc1)Nc1ccccc1 here?
A: 99 % of control

Q: And the T/C (dose: 25.0 mg/kg/injection, schedule: Q01DX009 (ip), vehicle: saline with Tween-80)?
A: 104 % of control

Q: And the T/C (dose: 50.0 mg/kg/injection, schedule: Q01DX009 (ip), vehicle: saline with Tween-80)?
A: 102 % of control

Q: With Cc1ccc(S(=O)(=O)C(c2ccccc2)C(Br)C(=O)c2ccccc2)cc1 (stereo not drawn) as the compound, how does the T/C (dose: 100.0 mg/kg/injection, schedule: Q04DX003 (ip), vehicle: saline) read?
A: 87 % of control

Q: What about the T/C (dose: 200.0 mg/kg/injection, schedule: Q04DX003 (ip), vehicle: saline) of the same compound?
A: 88 % of control

Q: COC(=O)C(Cc1ccccc1)NC(=O)C(Cc1cnc[nH]1)N(C(=O)OCc1ccccc1)C(=O)OCc1ccccc1 (stereo not drawn) was tested. Which T/C (dose: 25.0 mg/kg/injection, schedule: Q01DX005 (ip), vehicle: saline with Tween-80) did it give?
A: 88 % of control

Q: What about the T/C (dose: 50.0 mg/kg/injection, schedule: Q01DX005 (ip), vehicle: saline with Tween-80) of the same compound?
A: 91 % of control

Q: And the T/C (dose: 100.0 mg/kg/injection, schedule: Q01DX005 (ip), vehicle: saline with Tween-80)?
A: 87 % of control

Q: And the T/C (dose: 200.0 mg/kg/injection, schedule: Q01DX005 (ip), vehicle: saline with Tween-80)?
A: 89 % of control

Q: Which T/C [5] does the source give for CSc1ccc(NC(=O)Oc2ccccc2I)cc1 here?
A: 104 % of control

Q: What about the T/C [6] of the same compound?
A: 104 % of control

Q: And the T/C [7]?
A: 109 % of control

Q: With CC(=O)Nc1nnc(-c2coc3ccccc3c2=O)s1 as the compound, how does the T/C [8] read?
A: 91 % of control

Q: And the T/C [9]?
A: 91 % of control

Q: Which T/C [10] does the source give for CC(C)(C)SC(=O)CC(O)(c1ccccc1)c1ccccc1 here?
A: 115 % of control

Q: What about the T/C [11] of the same compound?
A: 106 % of control

Q: And the T/C [12]?
A: 95 % of control

Q: Which results are given for CC1CN=C(c2ccc(NC(=O)Nc3ccc(C4=NCC(C)N4)cc3)cc2)N1 (stereo not drawn)?
A: T/C (dose: 0.4 mg/kg/injection, schedule: Q01DX005 (ip), vehicle: saline with Tween-80): 106 % of control; T/C (dose: 0.78 mg/kg/injection, schedule: Q01DX005 (ip), vehicle: saline with Tween-80): 104 % of control; T/C (dose: 1.56 mg/kg/injection, schedule: Q01DX005 (ip), vehicle: saline with Tween-80): 117 % of control and 118 % of control; T/C (dose: 3.13 mg/kg/injection, schedule: Q01DX005 (ip), vehicle: saline with Tween-80): 117 % of control; T/C (dose: 6.25 mg/kg/injection, schedule: Q01DX005 (ip), vehicle: saline with Tween-80): 110 % of control

Q: For CCC1C(=O)COC1=O (stereo not drawn), which T/C (dose: 50.0 mg/kg/injection, schedule: Q01DX005 (ip), vehicle: Klucel (hydroxypropylcellulose) (HPC)) is on record?
A: 99 % of control

Q: And the T/C (dose: 100.0 mg/kg/injection, schedule: Q01DX005 (ip), vehicle: Klucel (hydroxypropylcellulose) (HPC))?
A: 99 % of control

Q: What about the T/C (dose: 200.0 mg/kg/injection, schedule: Q01DX005 (ip), vehicle: Klucel (hydroxypropylcellulose) (HPC)) of the same compound?
A: 99 % of control

Q: Which results are given for [N-]=[N+]=CC(=O)CCCCC1=CCCC1=O?
A: T/C (dose: 31.75 mg/kg/injection, schedule: Q01DX001 (ip), vehicle: saline with Tween-80): 103 % of control; T/C (dose: 63.5 mg/kg/injection, schedule: Q01DX001 (ip), vehicle: saline with Tween-80): 93 % of control; T/C (dose: 127.0 mg/kg/injection, schedule: Q01DX001 (ip), vehicle: saline with Tween-80): 94 % of control

Q: NC(=S)N/N=C/c1c(-c2ccccc2)nc2n1CCS2 was tested. Which T/C [2] did it give?
A: 100 % of control

Q: And the T/C [3]?
A: 104 % of control

Q: What about the T/C [4] of the same compound?
A: 109 % of control

Q: How did the T/C (dose: 0.44 mg/kg/injection, schedule: Q01DX009 (ip), vehicle: saline) turn out when Cc1c2ccccc2c(CSC(=N)N)c2ccccc12 was run?
A: 110 % of control

Q: What about the T/C (dose: 0.66 mg/kg/injection, schedule: Q01DX009 (ip), vehicle: saline) of the same compound?
A: 110 % of control

Q: And the T/C (dose: 1.0 mg/kg/injection, schedule: Q01DX009 (ip), vehicle: saline)?
A: 110 % of control

Q: And the T/C (dose: 1.47 mg/kg/injection, schedule: Q01DX009 (ip), vehicle: saline)?
A: 160 % of control

Q: And the T/C (dose: 1.5 mg/kg/injection, schedule: Q01DX009 (ip), vehicle: saline)?
A: 105 % of control and 120 % of control

Q: What about the T/C (dose: 2.2 mg/kg/injection, schedule: Q01DX009 (ip), vehicle: saline) of the same compound?
A: 160 % of control

Q: And the T/C (dose: 3.3 mg/kg/injection, schedule: Q01DX009 (ip), vehicle: saline)?
A: 165 % of control

Q: And the T/C (dose: 5.0 mg/kg/injection, schedule: Q01DX009 (ip), vehicle: saline)?
A: 150 % of control and 185 % of control

Q: Which results are given for COc1cc(CCC(=O)O)on1?
A: T/C [1]: 101 % of control; T/C [13]: 109 % of control; T/C [14]: 108 % of control

Q: Which results are given for C=COC(=O)CCCCCCCC?
A: T/C [10]: 103 % of control; T/C [11]: 105 % of control; T/C [12]: 95 % of control

Q: Which T/C (dose: 12.5 mg/kg/injection, schedule: Q04DX003 (ip), vehicle: Klucel (hydroxypropylcellulose) (HPC)) does the source give for C[n+]1ccc(Nc2ccc(O)cc2)c2ccc(Cl)cc21 here?
A: 100 % of control

Q: And the T/C (dose: 25.0 mg/kg/injection, schedule: Q04DX003 (ip), vehicle: Klucel (hydroxypropylcellulose) (HPC))?
A: 116 % of control and 92 % of control

Q: What about the T/C (dose: 50.0 mg/kg/injection, schedule: Q01DX005 (ip), vehicle: saline + Tween-80 + alcohol) of the same compound?
A: 112 % of control

Q: What about the T/C (dose: 50.0 mg/kg/injection, schedule: Q04DX003 (ip), vehicle: Klucel (hydroxypropylcellulose) (HPC)) of the same compound?
A: 101 % of control and 95 % of control

Q: And the T/C (dose: 100.0 mg/kg/injection, schedule: Q01DX005 (ip), vehicle: saline + Tween-80 + alcohol)?
A: 110 % of control

Q: And the T/C [10]?
A: 109 % of control and 112 % of control

Q: And the T/C (dose: 200.0 mg/kg/injection, schedule: Q01DX005 (ip), vehicle: saline + Tween-80 + alcohol)?
A: 114 % of control

Q: What about the T/C [11] of the same compound?
A: 120 % of control and 94 % of control

Q: For CCOCCOCCOC(C)Oc1ccc(Cl)cc1C (stereo not drawn), which T/C [8] is on record?
A: 90 % of control

Q: What about the T/C [9] of the same compound?
A: 92 % of control

Q: And the T/C [15]?
A: 98 % of control

Q: Which results are given for COc1ccc(CCNc2cc3ncn(C)c(=O)c3cc2[N+](=O)[O-])cc1OC?
A: T/C [10]: 101 % of control; T/C [11]: 100 % of control; T/C [12]: 86 % of control

Q: O=C(O)C(c1ccccc1)N1C(=O)C(Cl)=C(Cl)C1=O (stereo not drawn) was tested. Which T/C (dose: 15.0 mg/kg/injection, schedule: Q01DX005 (ip), vehicle: saline with Tween-80) did it give?
A: 94 % of control

Q: What about the T/C (dose: 30.0 mg/kg/injection, schedule: Q01DX005 (ip), vehicle: saline with Tween-80) of the same compound?
A: 100 % of control

Q: And the T/C [8]?
A: 103 % of control and 112 % of control

Q: Which results are given for CCOC1CN(C(=O)OC)N1C(=O)OC (stereo not drawn)?
A: T/C [1]: 100 % of control; T/C [13]: 107 % of control; T/C [14]: 105 % of control

Q: How did the T/C (dose: 2.5 mg/kg/injection, schedule: Q01DX009 (ip), vehicle: water) turn out when CC(C)NC(=O)OCc1c(COC(=O)NC(C)C)c(-c2ccc(Cl)c(Cl)c2)n2c1CC(OC(=O)CN(C)C)C2 (stereo not drawn) was run?
A: 101 % of control

Q: And the T/C (dose: 5.0 mg/kg/injection, schedule: Q01DX009 (ip), vehicle: distilled water + Tween-80)?
A: 111 % of control

Q: What about the T/C (dose: 5.0 mg/kg/injection, schedule: Q01DX009 (ip), vehicle: water) of the same compound?
A: 117 % of control

Q: What about the T/C (dose: 10.0 mg/kg/injection, schedule: Q01DX009 (ip), vehicle: distilled water + Tween-80) of the same compound?
A: 122 % of control

Q: And the T/C (dose: 80.0 mg/kg/injection, schedule: Q01DX009 (ip), vehicle: water)?
A: 110 % of control

Q: Which results are given for O=c1c2c(c(=O)c(=O)c1=O)Nc1ccccc1N2?
A: T/C [8]: 100 % of control; T/C [9]: 101 % of control; T/C [15]: 107 % of control

Q: For CC12CC3(C)CC(C)(C1)CC(C(Cl)C(=O)NC(C)(C)C)(C2)C3 (stereo not drawn), which T/C [5] is on record?
A: 97 % of control

Q: And the T/C [6]?
A: 93 % of control

Q: What about the T/C [7] of the same compound?
A: 107 % of control

Q: What does the source list for CNC(=S)C(N)CCCC1NC(=S)N(C)C1=O (stereo not drawn)?
A: T/C [8]: 99 % of control; T/C [9]: 89 % of control; T/C [15]: 88 % of control

Source: PubChem BioAssay AID330 (DTP/NCI, 2004)
